The nature of series [1]: Glass transition temperature (Tg) by modulated differential scanning calorimetry (mDSC). It is filed as physicochemical. The settings on record: for Tg (° C.) First heating / Tg (° C.) Second heating: mDSC, precipitated salts of Compound 1; for Tg (° C.) First heating: first heating cycle; for Tg (° C.) Second heating: second heating cycle (intrinsic Tg in dry state). As to the method:
Modulated differential scanning calorimetry (mDSC) was used to characterize salts of the invention. Solid samples were placed in hermetically sealed aluminum pan with a pinhole. Modulation amplitude of ±0.8° C. with a period of 60 sec was applied to the sample heated at 2° C./min under dried nitrogen purge using TA instruments (New Castle, Del., USA) model 1000.
Heat-cool-heat cycles were applied to allow for moisture evaporation during first heating cycle and to erase thermal history of the sample, which allowed for the determination of the intrinsic glass transition temperature (Tg) in dry state.

Series [2] in a line: Hygroscopicity at room temperature (weight gain and visual phase transition after 24 hours at controlled RH). It is filed as physicochemical. Here is the method:
Hygroscopicity of salts of invention were measured by placing 20-50 mg of the sample in an uncapped scintillation vial. The vial was stored at ambient temperature in a Pyrex brand desiccator (VWR, International, CT). […] The relative humidity was confirmed using a digital hygrometer pen (VWR International, CT). An empty scintillation vial was also placed in the desiccator as a control. […] Visual observation of phase transition was also noted.

Where [3] appears, read: 55% RH, room temperature, 24 hours.
The mark [4] stands for this setting: 55% RH, room temperature, 24 hours, visual observation.
The mark [5] stands for this setting: 75% RH, room temperature, 24 hours.
Where [6] appears, read: 75% RH, room temperature, 24 hours, visual observation.

SMILES strings stand for the structures.

For the molecule `CC(C)c1nc(CN(C)C(=O)N[C@@H](CCN2CCOCC2)C(=O)N[C@H](CC[C@H](Cc2ccccc2)NC(=O)OCc2cncs2)Cc2ccccc2)cs1.O=C1NS(=O)(=O)c2ccccc21` [saccharinate], the “Tg (° C.) First heating” value in series [1] was determined as 37 °C. The “Tg (° C.) Second heating” value in series [1] came to 56 °C. For the same molecule, the “Tg (° C.)” value in series [1] (spray dried salts (from acetone)) was 36.4 °C. Further, the “% weight gain” value in series [2] (setting [3]) was found to be 1.89%; in series [2] (setting [5]), 4.09%. Moreover, the Phase transition entry in series [2] (setting [4]) is reported as “No”; in series [2] (setting [6]), “Yes”; in series [2] (spray dried salts, 55% RH), “no”; in series [2] (spray dried salts, 75% RH), “yes”. Also, in series [2] (spray dried salts, 75% RH), the “Weight gain at 75% (%)” value worked out at 4.0%.

For `CC(C)c1nc(CN(C)C(=O)N[C@@H](CCN2CCOCC2)C(=O)N[C@H](CC[C@H](Cc2ccccc2)NC(=O)OCc2cncs2)Cc2ccccc2)cs1.O=C(O)CNC(=O)c1ccccc1` [hippurate], the “Tg (° C.) First heating” value in series [1] worked out at 31 °C. In addition, the “Tg (° C.) Second heating” value in series [1] stood at 44 °C. In addition, the “% weight gain” value was 3.37% in series [2] (setting [3]) and 5.61% in series [2] (setting [5]). Besides, the Phase transition entry in series [2] (setting [4]) is “Partial”; in series [2] (setting [6]), “Yes”.

(Values after patent publication US20140187771A1, “AMORPHOUS SOLID SALTS” (Gilead Sciences, Inc., priority 2011, published 2014).)
